Here are results for two compounds from patent US9890175B2, “Taxane compound, and preparation method and use thereof” (JIANGSU TASLY DIYI PHARMACEUTICAL CO., LTD., priority 2013, dated 2018).

Usually Papp A→B stands for how fast a substance crosses the layer from the apical side. Lower therefore signals slow passage. A word on the Papp B→A: it is the apparent permeability from the basolateral to the apical side of a cell layer.

This series in a line: Caco-2 cell monolayer membrane transport assay (Papp and recovery). It counts as in vitro ADME. The note with it: human; for recovery: Caco-2, Recovery rate in mass; for Papp A→B: Caco-2, Papp A-B; for Papp B→A: Caco-2, Papp B-A. (In general: Passage across Caco-2 layers is used to estimate intestinal permeability.)

Source text: Caco-2 Cell Monolayer Membrane Transport Assay
Human-derived colorectal adenocarcinoma cell line Caco-2 cell monolayer model was used to study the bidirectional transport of the target compounds from the apical (AP) side to the basolateral (BL) side and from BL side to AP side. HPLC was used for quantitative analysis to calculate transport parameters, apparent permeability coefficient (Papp) and the efflux ratio.

With `CC[C@H]1OC(=O)[C@H](C)[C@@H](O[C@H]2C[C@@](C)(OC)[C@@H](O)[C@H](C)O2)[C@H](C)[C@@H](O[C@@H]2O[C@H](C)C[C@H](N(C)C)[C@H]2O)[C@](C)(O)C[C@@H](C)C(=O)[C@H](C)[C@@H](O)[C@]1(C)O` [Erythromycin, reference compound], the recovery (Mean) turned out to be 99%, the recovery (Sample-01) turned out to be 99.6% and the recovery (Sample-02) was found to be 98.5%.

For the compound `COCCc1ccc(OCC(O)CNC(C)C)cc1` (stereo not drawn) [Metoprolol, reference compound], the Papp A→B runs as follows: (Mean) 27.2 ×10⁻⁶ cm/s; (Sample-01) 28.1 ×10⁻⁶ cm/s; (Sample-02) 26.2 ×10⁻⁶ cm/s. Also, the Papp B→A (Mean) stood at 22.7 ×10⁻⁶ cm/s, the Papp B→A (Sample-01) is 22.4 ×10⁻⁶ cm/s and the Papp B→A (Sample-02) amounted to 23 ×10⁻⁶ cm/s. The compound further came in with a recovery (Mean) of 99%, a recovery (Sample-01) of 103% and a recovery (Sample-02) of 95.5%.
